Experimental data: US9890166B2, “Imidazopyrrolidine derivatives and their use in the treatment of disease” (NOVARTIS AG, priority 2013, dated 2018)

Assays:
[1] = biological target: CREBBP bromodomain (His-CREBBP(1081-1197)) (Homo sapiens (Human), UniProt Q92793); test: AlphaScreen in-vitro binding assay for CREBBP; details: single determination or n ≧ 2 independent determinations, read-out: Biochemical IC50 CREBBP
Procedure, shortened: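 Reactions at 30 °C for 35 min, then Ni-chelate acceptor and streptavidin donor beads in HEPES pH 7.5, NaCl, Tween20, BSA, 60 min at room temperature. Eight-point compound series; IC50 by non-linear regression of percent inhibition.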

THP-1 cells = test: Cell growth inhibition assay (CellTiter-Glo), THP-1; details: for GI50: Homo sapiens, THP-1, read-out: THP-1 GI50; for THP-1 TGI: THP-1 cells, total growth inhibition, CellTiter-Glo;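 as to all read-outs here: viability read as cellular ATP luminescence after 4 days, 3-fold dilution series from 10 µM, DMSO vehicle-treated cells taken as 100%, cell-free medium wells as −100%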
[2] = biological target: nuclear BRD4-NUT foci in HCC2494 NUT midline carcinoma cells (Homo sapiens, UniProt O60885); test: cell-based
MV-4-11 cells = test: Cell growth inhibition assay (CellTiter-Glo), MV-4-11; details: for GI50: Homo sapiens, MV4-11, read-out: MV-4-11 GI50; for MV-4-11 TGI: MV-4-11 cells, total growth inhibition, CellTiter-Glo;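 as to all read-outs here: cellular ATP luminescence after 4 days, 3-fold dilution series from 10 µM top dose, vehicle (0.1% DMSO) set to 100%, cell-free medium set to −100%, day 0 corrected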
BRD4 (His-Brd4(44-477)) = BRD4 (His-Brd4(44-477)) (Homo sapiens (Human), UniProt O60885); test: TR-FRET in-vitro binding assay for BRD4; details: single determination or n ≧ 2 independent determinations, read-out: Biochemical IC50 BRD4
Procedure, shortened: (§1)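 TR-FRET binding with His-tagged bromodomain constructs, 8-point compound dilutions from 10 mM DMSO stocks. Reactions incubated 35 min at 30° C in 13.55 μL, read on an EnVision multilabel reader.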

BRD3 (His-Brd3(20-477)) = BRD3 (His-Brd3(20-477)) (Homo sapiens (Human), UniProt Q15059); test: TR-FRET in-vitro binding assay for BRD3; details: single determination or n ≧ 2 independent determinations, read-out: Biochemical IC50 BRD3
Procedure, shortened: as §1

K-562 cells = test: Cell growth inhibition assay (CellTiter-Glo), K-562; details: for GI50: Homo sapiens, K562, read-out: K-562 GI50; for K-562 TGI: K-562 cells, total growth inhibition, CellTiter-Glo;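 as to all read-outs here: cellular ATP measured by luminescence after 4 days of exposure, 3-fold dilution series from 10 µM, DMSO vehicle-treated cells define 100%, cell-free medium wells −100%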
BRD2 (His-Brd2(60-472)) = BRD2 (His-Brd2(60-472)) (Homo sapiens (Human), UniProt P25440); test: TR-FRET in-vitro binding assay for BRD2; details: single determination or n ≧ 2 independent determinations, read-out: Biochemical IC50 BRD2
Procedure, shortened: as §1

Chain of BRD3 (His-Brd3(20-477)) (Q15059 20-477): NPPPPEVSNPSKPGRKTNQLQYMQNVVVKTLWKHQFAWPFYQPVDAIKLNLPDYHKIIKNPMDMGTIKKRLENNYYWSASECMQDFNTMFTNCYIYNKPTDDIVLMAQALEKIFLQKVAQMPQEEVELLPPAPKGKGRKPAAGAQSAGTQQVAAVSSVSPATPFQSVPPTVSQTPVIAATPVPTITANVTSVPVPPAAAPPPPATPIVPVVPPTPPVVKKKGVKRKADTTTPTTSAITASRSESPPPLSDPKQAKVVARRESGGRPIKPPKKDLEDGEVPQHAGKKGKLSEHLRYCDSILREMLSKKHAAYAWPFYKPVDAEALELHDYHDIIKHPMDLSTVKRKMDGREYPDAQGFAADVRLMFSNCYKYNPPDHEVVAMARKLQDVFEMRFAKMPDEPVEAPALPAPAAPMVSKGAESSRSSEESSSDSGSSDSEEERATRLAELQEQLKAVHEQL
Chain of CREBBP bromodomain (His-CREBBP(1081-1197)) (Q92793 1081-1197): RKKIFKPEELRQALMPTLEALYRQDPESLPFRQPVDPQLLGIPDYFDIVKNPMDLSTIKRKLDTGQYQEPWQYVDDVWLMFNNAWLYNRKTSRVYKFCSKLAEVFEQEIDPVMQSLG
Chain of BRD2 (His-Brd2(60-472)) (P25440 60-472): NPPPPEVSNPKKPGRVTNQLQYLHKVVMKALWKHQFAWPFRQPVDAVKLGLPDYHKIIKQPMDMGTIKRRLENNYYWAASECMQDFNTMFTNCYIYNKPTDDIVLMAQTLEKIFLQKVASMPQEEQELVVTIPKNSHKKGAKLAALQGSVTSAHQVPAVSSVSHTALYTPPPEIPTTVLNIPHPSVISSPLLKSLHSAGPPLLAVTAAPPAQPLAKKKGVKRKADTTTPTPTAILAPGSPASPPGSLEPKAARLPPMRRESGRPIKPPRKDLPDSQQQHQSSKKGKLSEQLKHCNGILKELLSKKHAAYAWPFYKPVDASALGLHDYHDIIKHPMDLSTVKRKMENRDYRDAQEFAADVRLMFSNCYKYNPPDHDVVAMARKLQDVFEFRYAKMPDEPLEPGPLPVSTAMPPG

Row | Compound | IC50 [1] | GI50 (THP-1 cells) | THP-1 TGI (THP-1 cells) | IC50 [2] | GI50 (MV-4-11 cells) | MV-4-11 TGI (MV-4-11 cells) | IC50 (BRD4 (His-Brd4(44-477))) | IC50 (BRD3 (His-Brd3(20-477))) | GI50 (K-562 cells) | K-562 TGI (K-562 cells) | IC50 (BRD2 (His-Brd2(60-472)))
1 | COc1ccc(-c2nc3c(n2C(C)C)C(c2ccc(Cl)cc2)N(c2cc(OC)c4nnc(C)n4c2)C3=O)cn1 (stereo not drawn) [Example 52, 6-(4-chlorophenyl)-1-isopropyl-5-(8-methoxy-3-methyl-[1,2,4]triazolo[4,3-a]pyridin-6-yl)-2-(6-methoxypyridin-3-yl)-5,6-dihydropyrrolo[3,4-d]imidazol-4(1H)-one] | > 37000 nM | 981 nM | 1920 nM | 710 nM | 271 nM | 409 nM | 35 nM | 63 nM | 2480 nM | >10000 nM | 80 nM
2 | COc1cc(N2C(=O)c3nc(C4=CCOCC4)n(C(C)C)c3C2c2ccc(Cl)cc2)cn2c(C)nnc12 (stereo not drawn) [Example 53, 6-(4-chlorophenyl)-2-(3,6-dihydro-2H-pyran-4-yl)-1-isopropyl-5-(8-methoxy-3-methyl-[1,2,4]triazolo[4,3-a]pyridin-6-yl)-5,6-dihydropyrrolo[3,4-d]imidazol-4(1H)-one] | > 37000 nM | 1270 nM | 3740 nM | 1330 nM | 505 nM | 939 nM | 92 nM | 200 nM | 7990 nM | >10000 nM | 220 nM
3 | COc1ncc(-c2nc3c(n2C)C(c2ccc(Cl)cc2)N(c2cc(OC)c4nnc(C)n4c2)C3=O)c(OC)n1 (stereo not drawn) [Example 54, 6-(4-chlorophenyl)-2-(2,4-dimethoxypyrimidin-5-yl)-5-(8-methoxy-3-methyl-[1,2,4]triazolo[4,3-a]pyridin-6-yl)-1-methyl-5,6-dihydropyrrolo[3,4-d]imidazol-4(1H)-one] | > 37000 nM | 3710 nM | >10000 nM | 3390 nM | 2100 nM | 3600 nM | 59 nM | 98 nM | > 10000 nM | >10000 nM | 120 nM
4 | COc1ccc(-c2nc3c(n2C)C(c2ccc(Cl)cc2)N(c2cc(OC)c4nnc(C)n4c2)C3=O)cn1 (stereo not drawn) [Example 55, 6-(4-chlorophenyl)-5-(8-methoxy-3-methyl-[1,2,4]triazolo[4,3-a]pyridin-6-yl)-2-(6-methoxypyridin-3-yl)-1-methyl-5,6-dihydropyrrolo[3,4-d]imidazol-4(1H)-one] | > 37000 nM | 2000 nM | 4410 nM | 2800 nM | 706 nM | 1060 nM | 56 nM | 92 nM | 7250 nM | >10000 nM | 110 nM
5 | COc1cc(N2C(=O)c3nc(C4CC4)n(C)c3C2c2ccc(Cl)cc2)cn2c(C)nnc12 (stereo not drawn) [Example 56, 6-(4-chlorophenyl)-2-cyclopropyl-5-(8-methoxy-3-methyl-[1,2,4]triazolo[4,3-a]pyridin-6-yl)-1-methyl-5,6-dihydropyrrolo[3,4-d]imidazol-4(1H)-one] | > 37000 nM | 1240 nM | 3670 nM | 1210 nM | 816 nM | 1340 nM | 130 nM | 210 nM | 3230 nM | >10000 nM | 290 nM
6 | Cc1cc(N2C(=O)c3nc(C4CC4)n(C)c3C2c2ccc(Cl)cc2)cn2c(C)nnc12 (stereo not drawn) [Example 57, 6-(4-chlorophenyl)-2-cyclopropyl-5-(3,8-dimethyl-[1,2,4]triazolo[4,3-a]pyridin-6-yl)-1-methyl-5,6-dihydropyrrolo[3,4-d]imidazol-4(1H)-one] | 5100 nM | 83.6 nM | 193 nM | 91.2 nM | 40.5 nM | 68.8 nM | < 11 nM | < 11 nM | 572 nM | >10000 nM | < 11 nM
7 | Cc1cc(N2C(=O)c3c(nc(C)n3C(C)C)[C@H]2c2ccc(Cl)cc2)cc2c1nnn2C [Example 118, (R)-6-(4-chlorophenyl)-5-(3,7-dimethyl-3H-benzo[d][1,2,3]triazol-5-yl)-3-isopropyl-2-methyl-5,6-dihydropyrrolo[3,4-d]imidazol-4(3H)-one] | 1080 nM | 5.12 nM | 12.5 nM | 3.4 nM | 2.1 nM | 3.79 nM | < 11 nM | 12 nM | 28.4 nM | >10000 nM | 14 nM
8 | CCn1c(C)nc2c1C(=O)N(c1cc(C)c3nnn(C)c3c1)C2c1ccc(Cl)cc1 (stereo not drawn) [Example 121, 6-(4-chlorophenyl)-5-(3,7-dimethyl-3H-benzo[d][1,2,3]triazol-5-yl)-3-ethyl-2-methyl-5,6-dihydropyrrolo[3,4-d]imidazol-4(3H)-one] | 4400 nM | 9 nM | 20.1 nM | 3.07 nM | 10.8 nM | 20.9 nM | 29 nM | 27 nM | 48.1 nM | >10000 nM | 29 nM
9 | COc1ncc(-c2nc3c([nH]2)C(c2ccc(Cl)cc2)N(c2cc(OC)c4nnc(C)n4c2)C3=O)c(OC)n1 (stereo not drawn) [Example 127, 6-(4-chlorophenyl)-2-(2,4-dimethoxypyrimidin-5-yl)-5-(8-methoxy-3-methyl-[1,2,4]triazolo[4,3-a]pyridin-6-yl)-5,6-dihydropyrrolo[3,4-d]imidazol-4(1H)-one] | > 37000 nM | 377 nM | 966 nM | 408 nM | 209 nM | 317 nM | 120 nM | 480 nM | 1720 nM | >10000 nM | 360 nM
